Test results from patent US11666596B2, “Nucleotide, polypeptide and applications thereof” (THE FIRST AFFILIATED HOSPITAL, SUN YAT-SEN UNIVERSITY, priority 2017, dated 2023).
Ends that are not written are not given here.

System: U251 cells
Test: Verification of ability of micropeptide to enter cells (fluorescence microscopy)
Format: cell-based
Details: FITC-attached micropeptide, 10 μM, 4 hours; all cells in sight were fluorescent; FIG. 4
Experimental: U251 cells were inoculated onto a glass slide at the density of 50%, and different concentrations of PTEN-31aa micropeptide attached with FITC fluorescent groups (the micropeptide was dissolved in DMSO with a concentration being 20 μg/μL, 5 mM) were added to treat cells for 4 hours, then fixed with Faure Marin, and observed and photographed under a fluorescence microscope.

Sequence: MWRDSLCAAAGYALGAGTRLRSVLSSRKLQP [PTEN-31aa]
- ability of micropeptide to enter U251 cells: could enter the U251 cells smoothly
